#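 48-hour exposure; five concentrations; linearly interpolated endpoints. TGI: total growth inhibition.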
# Tests used:
# Assay in all cases: DTP human tumour cell line panel, 48 h
# EKVX NSCLC = test system: EKVX NSCLC
# IGROV1 ovarian = test system: IGROV1 ovarian
# HCT-116 colon = test system: HCT-116 colon
# MOLT-4 leukemia = test system: MOLT-4 leukemia
# OVCAR-8 ovarian = test system: OVCAR-8 ovarian
# 786-0 renal = test system: 786-0 renal
# SW-620 colon = test system: SW-620 colon
# CCRF-CEM leukemia = test system: CCRF-CEM leukemia
# SR leukemia = test system: SR leukemia
# OVCAR-3 ovarian = test system: OVCAR-3 ovarian
# LOX IMVI melanoma = test system: LOX IMVI melanoma
# A498 renal = test system: A498 renal
# UACC-62 melanoma = test system: UACC-62 melanoma
# RPMI-8226 leukemia = test system: RPMI-8226 leukemia
# NCI-H23 lung = test system: NCI-H23 lung
# SNB-75 CNS = test system: SNB-75 CNS
# TK-10 renal = test system: TK-10 renal
# HT29 colon = test system: HT29 colon
# PC-3 prostate = test system: PC-3 prostate
# SF-539 CNS = test system: SF-539 CNS
# T-47D breast = test system: T-47D breast
# SK-MEL-5 melanoma = test system: SK-MEL-5 melanoma
# DU-145 prostate = test system: DU-145 prostate
# M14 melanoma = test system: M14 melanoma
# HOP-62 NSCLC = test system: HOP-62 NSCLC
# HCC-2998 colon = test system: HCC-2998 colon
# OVCAR-5 ovarian = test system: OVCAR-5 ovarian
# SK-MEL-2 melanoma = test system: SK-MEL-2 melanoma
# U251 CNS = test system: U251 CNS
# MDA-MB-231 breast = test system: MDA-MB-231 breast
# OVCAR-4 ovarian = test system: OVCAR-4 ovarian
# SK-OV-3 ovarian = test system: SK-OV-3 ovarian
# NCI-H522 lung = test system: NCI-H522 lung
# BT-549 breast = test system: BT-549 breast
# SF-268 CNS = test system: SF-268 CNS
# COLO 205 colon = test system: COLO 205 colon
# KM12 colon = test system: KM12 colon
# HCT-15 colon = test system: HCT-15 colon
# SF-295 CNS = test system: SF-295 CNS
# MALME-3M melanoma = test system: MALME-3M melanoma
# UO-31 renal = test system: UO-31 renal
# MDA-N = test system: MDA-N
# MDA-MB-435 = test system: MDA-MB-435
# SN12C renal = test system: SN12C renal
# NCI-H226 lung = test system: NCI-H226 lung
# K-562 leukemia = test system: K-562 leukemia
# UACC-257 melanoma = test system: UACC-257 melanoma
# CAKI-1 renal = test system: CAKI-1 renal
# A549 NSCLC = test system: A549 NSCLC
# HOP-92 NSCLC = test system: HOP-92 NSCLC
# ACHN renal = test system: ACHN renal
# NCI/ADR-RES ovarian = test system: NCI/ADR-RES ovarian
# NCI-H460 lung = test system: NCI-H460 lung
# HS 578T breast = test system: HS 578T breast
# SK-MEL-28 melanoma = test system: SK-MEL-28 melanoma
# RXF 393 renal = test system: RXF 393 renal
# HL-60(TB) leukemia = test system: HL-60(TB) leukemia
# MCF7 breast = test system: MCF7 breast
# SNB-19 CNS = test system: SNB-19 CNS
structure (smiles),measurement,setting,value
Brc1ccc2c(c1)C1=C(CO2)Cc2ccccc2O1,TGI,EKVX NSCLC,54.9 µM
same,TGI,IGROV1 ovarian,32.7 µM
same,TGI,HCT-116 colon,29.9 µM
same,TGI,MOLT-4 leukemia,66.1 µM
same,TGI,OVCAR-8 ovarian,47.6 µM
same,TGI,786-0 renal,43.7 µM
same,TGI,SW-620 colon,66.4 µM
same,TGI,CCRF-CEM leukemia,> 100 µM
same,TGI,SR leukemia,> 100 µM
same,TGI,OVCAR-3 ovarian,31.8 µM
same,TGI,LOX IMVI melanoma,31.1 µM
same,TGI,A498 renal,45.2 µM
same,TGI,UACC-62 melanoma,32.2 µM
same,TGI,RPMI-8226 leukemia,61.8 µM
same,TGI,NCI-H23 lung,32.5 µM
same,TGI,SNB-75 CNS,43 µM
same,TGI,TK-10 renal,37.2 µM
same,TGI,HT29 colon,62.8 µM
same,TGI,PC-3 prostate,32.9 µM
same,TGI,SF-539 CNS,36.3 µM
same,TGI,T-47D breast,33.2 µM
same,TGI,SK-MEL-5 melanoma,28.2 µM
same,TGI,DU-145 prostate,38.6 µM
same,TGI,M14 melanoma,35 µM
same,TGI,HOP-62 NSCLC,30.3 µM
same,TGI,HCC-2998 colon,32.3 µM
same,TGI,OVCAR-5 ovarian,34.8 µM
same,TGI,SK-MEL-2 melanoma,34.3 µM
same,TGI,U251 CNS,36.3 µM
same,TGI,MDA-MB-231 breast,30.3 µM
same,TGI,OVCAR-4 ovarian,33.6 µM
same,TGI,SK-OV-3 ovarian,46.7 µM
same,TGI,NCI-H522 lung,39.8 µM
same,TGI,BT-549 breast,33 µM
same,TGI,SF-268 CNS,41 µM
same,TGI,COLO 205 colon,31.5 µM
same,TGI,KM12 colon,37.2 µM
same,TGI,HCT-15 colon,38.4 µM
same,TGI,SF-295 CNS,35.4 µM
same,TGI,MALME-3M melanoma,38.2 µM
same,TGI,UO-31 renal,30.6 µM
same,TGI,MDA-N,27 µM
same,TGI,MDA-MB-435,45.1 µM
same,TGI,SN12C renal,33 µM
same,TGI,NCI-H226 lung,40.1 µM
same,TGI,K-562 leukemia,> 100 µM
same,TGI,UACC-257 melanoma,32.6 µM
same,TGI,CAKI-1 renal,32.3 µM
same,TGI,A549 NSCLC,48 µM
same,TGI,HOP-92 NSCLC,31.5 µM
same,TGI,ACHN renal,33.3 µM
same,TGI,NCI/ADR-RES ovarian,58.3 µM
CN(C)CCCOC(=O)C(O)(Cc1ccccc1)C1CC1 (centres undefined),TGI,EKVX NSCLC,> 100 µM
same,TGI,NCI-H460 lung,> 100 µM
same,TGI,IGROV1 ovarian,> 100 µM
same,TGI,HCT-116 colon,> 100 µM
same,TGI,MOLT-4 leukemia,> 100 µM
same,TGI,OVCAR-8 ovarian,> 100 µM
same,TGI,786-0 renal,> 100 µM
same,TGI,SW-620 colon,> 100 µM
same,TGI,HS 578T breast,> 100 µM
same,TGI,CCRF-CEM leukemia,> 100 µM
same,TGI,SK-MEL-28 melanoma,> 100 µM
same,TGI,SR leukemia,> 100 µM
same,TGI,OVCAR-3 ovarian,> 100 µM
same,TGI,LOX IMVI melanoma,> 100 µM
same,TGI,A498 renal,> 100 µM
same,TGI,UACC-62 melanoma,> 100 µM
same,TGI,RPMI-8226 leukemia,> 100 µM
same,TGI,NCI-H23 lung,> 100 µM
same,TGI,SNB-75 CNS,> 100 µM
same,TGI,TK-10 renal,> 100 µM
same,TGI,HT29 colon,> 100 µM
same,TGI,PC-3 prostate,> 100 µM
same,TGI,SF-539 CNS,> 100 µM
same,TGI,T-47D breast,> 100 µM
same,TGI,SK-MEL-5 melanoma,> 100 µM
same,TGI,RXF 393 renal,> 100 µM
same,TGI,DU-145 prostate,> 100 µM
same,TGI,M14 melanoma,> 100 µM
same,TGI,HOP-62 NSCLC,> 100 µM
same,TGI,HCC-2998 colon,> 100 µM
same,TGI,OVCAR-5 ovarian,> 100 µM
same,TGI,SK-MEL-2 melanoma,> 100 µM
same,TGI,U251 CNS,> 100 µM
same,TGI,MDA-MB-231 breast,> 100 µM
same,TGI,OVCAR-4 ovarian,> 100 µM
same,TGI,SK-OV-3 ovarian,> 100 µM
same,TGI,NCI-H522 lung,> 100 µM
same,TGI,SF-268 CNS,> 100 µM
same,TGI,COLO 205 colon,> 100 µM
same,TGI,KM12 colon,> 100 µM
same,TGI,HCT-15 colon,> 100 µM
same,TGI,SF-295 CNS,> 100 µM
same,TGI,MALME-3M melanoma,> 100 µM
same,TGI,MDA-N,> 100 µM
same,TGI,MDA-MB-435,> 100 µM
same,TGI,SN12C renal,> 100 µM
same,TGI,NCI-H226 lung,> 100 µM
same,TGI,HL-60(TB) leukemia,> 100 µM
same,TGI,MCF7 breast,> 100 µM
same,TGI,K-562 leukemia,> 100 µM
same,TGI,UACC-257 melanoma,> 100 µM
same,TGI,CAKI-1 renal,> 100 µM
same,TGI,A549 NSCLC,> 100 µM
same,TGI,HOP-92 NSCLC,> 100 µM
same,TGI,SNB-19 CNS,> 100 µM
same,TGI,ACHN renal,> 100 µM
same,TGI,NCI/ADR-RES ovarian,> 100 µM

# Reference: PubChem BioAssay (NCI)
